Measured values: BigSolDB 2.1

O=C(O)c1cc([N+](=O)[O-])cc([N+](=O)[O-])c1
solubility (mole fraction)
Settings | 283.15 K | 288.15 K | 293.15 K | 298.15 K | 303.15 K | 308.15 K | 313.15 K | 318.15 K | 323.15 K
in acetonitrile | 0.00815 | 0.00958 | 0.011 | 0.0129 | 0.0148 | 0.0162 | 0.019 | 0.0218 | 0.0236
in ethanol | 0.0264 | 0.0306 | 0.0346 | 0.0396 | 0.0456 | 0.0524 | 0.0593 | 0.07 | 0.078
in ethyl acetate | 0.0349 | 0.0373 | 0.0399 | 0.0426 | 0.0458 | 0.0495 | 0.0533 | 0.0574 | 0.0627
in isobutanol | 0.00648 | 0.00862 | 0.0129 | 0.0171 | 0.0223 | 0.0265 | 0.031 | 0.0376 | 0.0466
in isopropanol | 0.014 | 0.0167 | 0.0194 | 0.0255 | 0.0315 | 0.0381 | 0.0459 | 0.0548 | 0.0661
in methanol | 0.0321 | 0.0399 | 0.0454 | 0.0502 | 0.059 | 0.0669 | 0.0767 | 0.0843 | 0.0943
in methyl acetate | 0.0378 | 0.0413 | 0.0456 | 0.0498 | 0.054 | 0.0582 | 0.0623 | 0.0664 | 0.0713
in n-butanol | 0.0138 | 0.0163 | 0.0214 | 0.0273 | 0.0329 | 0.0386 | 0.0458 | 0.0537 | 0.0622
in n-butyl acetate | 0.0257 | 0.0262 | 0.0281 | 0.0327 | 0.0341 | 0.04 | 0.0451 | 0.0504 | 0.0562
in n-pentanol | 0.0153 | 0.0173 | 0.0223 | 0.0273 | 0.0321 | 0.0379 | 0.0456 | 0.0531 | 0.0604
in n-propanol | 0.0173 | 0.019 | 0.0224 | 0.0274 | 0.0332 | 0.0397 | 0.0457 | 0.0549 | 0.065
in n-propyl acetate | 0.0281 | 0.0296 | 0.0318 | 0.0354 | 0.04 | 0.0443 | 0.0494 | 0.0548 | 0.0609
in sec-butanol | 0.0139 | 0.0159 | 0.0201 | 0.0263 | 0.0324 | 0.0414 | 0.0503 | 0.0628 | 0.0777
